This passage reports IC50 results from PMC4981696, “Non-target Site Tolerance Mechanisms Describe Tolerance to Glyphosate in Avena sterilis” (Frontiers in Plant Science, 2016).

Holding throughout (assay): phosphate release assay (EnzChek phosphate kit)
What all share (conditions): partially purified leaf extract; 100 mM MOPS, 1 mM MgCl2, 10% glycerol, 2 mM sodium molybdate, 200 mM NaF; glyphosate 0-1000 μM; range is 95% CI; read-out: I50(μM)(95% CI)^a

Assay [1] has as its system T1, EPSPS (A. sterilis UE accession).
T1 construct: homeologous copies not distinguished
The format is biochemical, Avena sterilis. An excerpt: phosphate release assay (EnzChek phosphate kit) on EPSPS (A. sterilis UE accession)

For assay [2], the system named is T2, EPSPS (A. sterilis E accession).
T2 construct: homeologous copies not distinguished
It counts as biochemical, Avena sterilis. An excerpt:
phosphate release assay (EnzChek phosphate kit) on EPSPS (A. sterilis E accession)

Assay [3] addresses T3, EPSPS (L. rigidum S population) (Lolium rigidum, UniProt A0A5B9T5S8).
T3 sequence (A0A5B9T5S8 61-505): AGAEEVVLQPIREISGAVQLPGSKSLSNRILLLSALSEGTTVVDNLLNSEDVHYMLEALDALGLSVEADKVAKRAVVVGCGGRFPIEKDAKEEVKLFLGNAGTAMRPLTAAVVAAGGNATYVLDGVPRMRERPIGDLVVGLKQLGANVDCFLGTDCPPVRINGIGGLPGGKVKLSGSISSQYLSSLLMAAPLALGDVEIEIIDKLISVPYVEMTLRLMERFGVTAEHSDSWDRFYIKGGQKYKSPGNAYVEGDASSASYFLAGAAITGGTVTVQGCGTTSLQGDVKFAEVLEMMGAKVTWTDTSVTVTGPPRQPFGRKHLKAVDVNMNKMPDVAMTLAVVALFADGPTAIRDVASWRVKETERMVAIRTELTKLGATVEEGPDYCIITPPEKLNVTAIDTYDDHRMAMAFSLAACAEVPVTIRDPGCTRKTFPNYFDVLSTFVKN
It counts as biochemical. An excerpt:
phosphate release assay (EnzChek phosphate kit) on EPSPS (L. rigidum S population)

Turning to `O=C(O)CNCP(=O)(O)O` [glyphosate], the IC50 in assay [1] was 42.4 µM; in assay [2] it was 53.5 µM; in assay [3], 5.1 µM.
